The results in this text go back to ChEMBL document CHEMBL1201862, “PubChem BioAssay data set” (2004).

Among the test systems are K562; SF-295; A549; EKVX; NCI-H23; RXF 393; HT-29; HCC 2998; SK-MEL-5; COLO 205; SF-539; PC-3; NCI/ADR-RES; ACHN; HL-60; SW-620; HCT-15; MDA-MB-435; M14.
What all share (test): NCI-60 cell line screen, 48 h

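Values below derive from 48-hour exposures of cells grown in 96-well plates, with endpoints linearly interpolated between the two concentrations bracketing the appropriate inhibition level. GI50 = concentration required for 50% inhibition of growth.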 Active and inactive are the calls of the source. Cut-off read from the data, not from the text of the source: active = GI50 up to about 1.1 µM and inactive = higher.

In the case of `Nc1nc(Cl)c(CO)c(NCC2(CO)CCC2)n1`, the GI50 in the assay with K562 was > 100 µM (inactive); in the assay with SF-295 it was > 100 µM (inactive); in the assay with A549, > 100 µM (inactive); in the assay with EKVX, > 100 µM (inactive); in the assay with NCI-H23 it was 41.9 µM (inactive); with RXF 393, > 100 µM (inactive). In addition, the GI50 with HT-29 was > 100 µM (inactive); in the assay on HCC 2998, > 100 µM (inactive); in the assay with SK-MEL-5 it was > 100 µM (inactive); in the assay with COLO 205, > 100 µM (inactive); in the assay on SF-539, > 100 µM (inactive); in the assay with PC-3, 88.7 µM (inactive). The GI50 with NCI/ADR-RES is > 100 µM (inactive); with ACHN, > 100 µM (inactive); in the assay with HL-60 it was > 100 µM (inactive); with SW-620 it was > 100 µM (inactive); with HCT-15, more than 100 µM; in the assay with MDA-MB-435, > 100 µM (inactive).
Take `O=[N+]([O-])c1ccc(O)c(/C=N/c2nc(-c3ccccc3)cs2)c1`: the GI50 in the assay with K562 was 2.4 µM (inactive); in the assay on SF-295 it was 33.1 µM (inactive); in the assay with A549, 38.5 µM (inactive); in the assay on EKVX it was 31.3 µM (inactive); in the assay with NCI-H23, 20.3 µM (inactive); in the assay with RXF 393, 20.8 µM (inactive). The GI50 with HT-29 is 34.2 µM (inactive); with HCC 2998, 24.8 µM (inactive); in the assay on SK-MEL-5, 13.2 µM (inactive); with COLO 205 it was 19.6 µM (inactive); with PC-3, 33.3 µM (inactive); with NCI/ADR-RES it was 29.7 µM (inactive). In addition, the GI50 in the assay on ACHN was 31.4 µM (inactive); with HL-60, 34.2 µM (inactive); in the assay with SW-620, 37.6 µM (inactive); with HCT-15 it was 29.1 µM; in the assay on M14, 29.4 µM (inactive); with MDA-MB-435, 35.5 µM (inactive).
For `CC1(C)CC(=O)C(=CNC(N)=S)C(=O)C1`, the GI50 in the assay on SF-295, in the assay with A549, in the assay on EKVX, with NCI-H23, in the assay on RXF 393 and in the assay with HT-29 was > 100 µM (inactive) in each case. The GI50 with HCC 2998, with SK-MEL-5, in the assay on COLO 205, with SF-539, in the assay on PC-3 and in the assay on NCI/ADR-RES was > 100 µM (inactive) each time. The GI50 is > 100 µM (inactive) in the assay with ACHN; > 100 µM (inactive) with HL-60; > 100 µM (inactive) in the assay with SW-620; more than 100 µM with HCT-15; > 100 µM (inactive) in the assay on M14; > 100 µM (inactive) with MDA-MB-435.
For `C[C@]12c3c4cc(NC(=O)C(=O)NCc5ccc(-c6ccccn6)nc5)cc3Oc3cc(NC(=O)C(=O)NCc5ccc(-c6ccccn6)nc5)cc(c31)OC1C=C(NC(=O)C(=O)NCc3ccc(-c5ccccn5)nc3)C=C(O4)C12` (some centres undefined), the GI50 with K562 was 84.9 µM (inactive); in the assay on SF-295 it was 25.4 µM (inactive); in the assay with A549 it was 86.5 µM (inactive); in the assay on EKVX, 11.5 µM (inactive); in the assay with RXF 393, > 100 µM (inactive); in the assay on HT-29, 12.1 µM (inactive). In addition, the GI50 in the assay with SK-MEL-5 is 35.3 µM (inactive); in the assay on COLO 205, 23.1 µM (inactive); with SF-539, 29.3 µM (inactive); with PC-3 it was 61.5 µM (inactive); in the assay on NCI/ADR-RES, 49.7 µM (inactive); with ACHN, 14.3 µM (inactive). The GI50 is 14.6 µM (inactive) in the assay with HL-60; > 100 µM (inactive) with SW-620; 27.8 µM with HCT-15; 98.2 µM (inactive) with M14; 97.9 µM (inactive) in the assay with MDA-MB-435.
Take `O=[N+]([O-])/C=C/c1cc2ccccc2[nH]1`: the GI50 was 13.8 µM (inactive) with K562; 19.5 µM (inactive) in the assay on SF-295; 17.5 µM (inactive) with A549; 29.2 µM (inactive) with EKVX; 13.1 µM (inactive) in the assay on NCI-H23; 13.3 µM (inactive) with RXF 393. Further, the GI50 is 15.8 µM (inactive) in the assay on HT-29; 14.7 µM (inactive) in the assay with SK-MEL-5; 17.2 µM (inactive) in the assay on COLO 205; 9.84 µM (inactive) in the assay on SF-539; 15.2 µM (inactive) in the assay on PC-3; 32.1 µM (inactive) in the assay with NCI/ADR-RES. Further, the GI50 is 17 µM (inactive) in the assay with ACHN; 4.33 µM (inactive) in the assay with HL-60; 8.83 µM (inactive) with SW-620; 21.5 µM with HCT-15; 12.5 µM (inactive) with M14; 2.59 µM (inactive) in the assay with MDA-MB-435.
Consider `CC(C)[C@H](NC(=O)[C@H](N)Cc1ccc(N(CCCl)CCCl)cc1)C(=O)O`, for which the GI50 in the assay with K562, in the assay with SF-295, in the assay with A549, in the assay with EKVX, in the assay with NCI-H23 and in the assay on RXF 393 was > 100 µM (inactive) in each case. The GI50 with HT-29, with HCC 2998, with SK-MEL-5, in the assay on COLO 205, with PC-3 and in the assay on NCI/ADR-RES was > 100 µM (inactive) in each case. Moreover, the GI50 in the assay with ACHN is > 100 µM (inactive); with HL-60 it was > 100 µM (inactive); in the assay on SW-620 it was > 100 µM (inactive); in the assay on HCT-15, more than 100 µM; in the assay with M14, > 100 µM (inactive); in the assay on MDA-MB-435 it was > 100 µM (inactive).
Turning to `Clc1ccccc1NN(Cc1ccncc1)c1ccccc1Cl`, the GI50 in the assay on K562 was 10.4 µM (inactive); in the assay with SF-295, 16.7 µM (inactive); in the assay with A549, 12.5 µM (inactive); in the assay with EKVX it was 14 µM (inactive); with NCI-H23, 15.6 µM (inactive); with RXF 393, 16 µM (inactive). The GI50 in the assay on HT-29 was 12.6 µM (inactive); in the assay with SK-MEL-5 it was 13.9 µM (inactive); in the assay on COLO 205, 14.4 µM (inactive); in the assay with SF-539, 18.2 µM (inactive); with PC-3 it was 15 µM (inactive); in the assay on NCI/ADR-RES, 13.8 µM (inactive). For the same compound, the GI50 in the assay on ACHN is 16.6 µM (inactive); in the assay on HL-60, 17 µM (inactive); in the assay on SW-620 it was 16.9 µM (inactive); in the assay with HCT-15, 16.3 µM; in the assay with M14 it was 17.7 µM (inactive); in the assay with MDA-MB-435, 15.2 µM (inactive).
`O=C(C[C@@H]1CCCN2CCCC[C@H]12)N1c2ccccc2Sc2ccc(Cl)cc21`: the GI50 is 13.8 µM (inactive) in the assay with K562; 19.5 µM (inactive) in the assay with SF-295; 16.6 µM (inactive) in the assay on A549; 19.1 µM (inactive) in the assay with EKVX; 14.7 µM (inactive) in the assay with NCI-H23; 13.6 µM (inactive) with RXF 393. Also, the GI50 was 10.6 µM (inactive) in the assay on HT-29; 11.7 µM (inactive) in the assay with SK-MEL-5; 11.9 µM (inactive) in the assay on COLO 205; 16.6 µM (inactive) with SF-539; 13.2 µM (inactive) in the assay on PC-3; 14.8 µM (inactive) in the assay on NCI/ADR-RES. In addition, the GI50 in the assay with ACHN is 14.2 µM (inactive); in the assay with HL-60, 14.5 µM (inactive); with SW-620, 13.9 µM (inactive); with HCT-15, 15.7 µM; in the assay with M14, 4.95 µM (inactive); in the assay with MDA-MB-435, 14.5 µM (inactive).
Consider `CC(C)(SCc1ccccc1)C(N)C(=O)O` (centres undefined), for which the GI50 in the assay on K562, with SF-295, with A549, with EKVX, in the assay on NCI-H23 and in the assay on RXF 393 was > 100 µM (inactive) throughout. The GI50 in the assay on HT-29, with SK-MEL-5, in the assay on PC-3, in the assay with NCI/ADR-RES, in the assay with ACHN and with HL-60 was > 100 µM (inactive) in each case. In addition, the GI50 with SW-620 was > 100 µM (inactive); in the assay on HCT-15 it was more than 100 µM; in the assay on M14, > 100 µM (inactive); with MDA-MB-435, > 100 µM (inactive).
On to `CC(=O)CCn1c(=S)sc2ccccc21`, for which the GI50 in the assay with SF-295, in the assay with A549, in the assay with EKVX, in the assay with NCI-H23, in the assay with RXF 393 and with HT-29 was > 100 µM (inactive) in each case. Also, the GI50 with HCC 2998 was > 100 µM (inactive); in the assay on SK-MEL-5, 56.8 µM (inactive); in the assay with COLO 205, > 100 µM (inactive); in the assay with SF-539 it was > 100 µM (inactive); in the assay on PC-3, > 100 µM (inactive); in the assay with NCI/ADR-RES it was > 100 µM (inactive). Also, the GI50 with ACHN is > 100 µM (inactive); in the assay on HL-60 it was 17.5 µM (inactive); in the assay on SW-620, > 100 µM (inactive); in the assay on HCT-15, more than 100 µM; in the assay with M14 it was > 100 µM (inactive); in the assay on MDA-MB-435, > 100 µM (inactive).
For `C#CC(O)/C=C/C(O)CCCC(O)CC#CC(O)C#CCCCCC(O)/C=C/CCCC(=O)CCCCCCCCCCCCCCCC(O)C(O)C#CC(=O)O` (centres undefined), the GI50 was > 25 µM (inactive) with K562; > 25 µM (inactive) in the assay with SF-295; > 25 µM (inactive) in the assay with A549; > 25 µM (inactive) in the assay on EKVX; > 25 µM (inactive) in the assay with NCI-H23; 9.64 µM (inactive) in the assay on RXF 393. Besides, the GI50 in the assay on HT-29, in the assay with HCC 2998, in the assay on SK-MEL-5, in the assay on COLO 205, in the assay with PC-3 and in the assay on NCI/ADR-RES was > 25 µM (inactive) throughout. Also, the GI50 with ACHN is > 25 µM (inactive); in the assay with HL-60 it was > 25 µM (inactive); with HCT-15 it was more than 25 µM; in the assay on M14 it was > 25 µM (inactive); with MDA-MB-435, > 25 µM (inactive).
